Source: US20260138958A1, “SUBSTITUTED N-PHENYLURACILS AND SALTS THEREOF, AND USE THEREOF AS HERBICIDAL ACTIVE SUBSTANCES” (Bayer Aktiengesellschaft, priority 2022, published 2026)
Each block holds one compound with its values, some of them ahead of it.

What was measured:
Format in all cases: in vivo
[1] = tested on: Digitaria sanguinalis (DIGSA); assay: Post-emergence herbicidal action, greenhouse pot test
Protocol: (§1) Seeds of monocotyledonous and dicotyledonous weeds and crop plants were placed in sandy loam in plastic or wood-fibre pots, covered with soil and cultivated in a greenhouse under controlled growth conditions. 2 to 3 weeks after sowing, the test plants were treated at the one-leaf stage. The compounds of the invention, formulated in the form of wettable powders (WP) or as emulsion concentrates (EC), were then sprayed onto the green parts of the plants as aqueous suspension or emulsion with addition of 0.5% additive at a water application rate of 600 l/ha (converted). After the test plants had been kept in the greenhouse under optimum growth conditions for about 3 weeks, the activity of the preparations was rated visually in comparison to untreated controls. For example, 100% activity=the plants have died, 0% activity=like control plants.

[2] = tested on: Polygonum convolvulus (POLCO); assay: as above
Protocol: as §1

[3] = tested on: Pharbitis purpurea (PHBPU); assay: as above
Protocol: as §1

Lolium rigidum (LOLRI) = assay: as above
Protocol: as §1

Bassia scoparia (KCHSC) = assay: as above
Protocol: as §1

[4] = tested on: Amaranthus retroflexus (AMARE); assay: as above
Protocol: as §1

Veronica persica (VERPE) = assay: as above
Protocol: as §1

Viola tricolor (VIOTR) = assay: as above
Protocol: as §1

Setaria viridis (SETVI) = assay: as above
Protocol: as §1

[5] = tested on: Tripleurospermum inodorum (MATIN); assay: as above
Protocol: as §1

[6] = tested on: Echinochloa crus-galli (ECHCG); assay: as above
Protocol: as §1

[7] = tested on: Abutilon theophrasti (ABUTH); assay: as above
Protocol: as §1

[8] = tested on: Alopecurus myosuroides (ALOMY); assay: as above
Protocol: as §1

[9] = tested on: Triticum aestivum (TRZAS); assay: Post-emergence crop plant compatibility, greenhouse pot test; conditions: crop plant, post-emergence, 1.25 g/ha
Protocol: as §1
The observed effects on selected crop plants are reported here in comparison to the untreated controls (values in %).

Post-emergence effect at 1.25 g/ha against TRZAS in % [9]: 10%
Structure (SMILES): Cn1c(C(F)(F)F)cc(=O)n(-c2cc(Oc3ccccc3OCC(=O)OCC3(C#N)CC3)c(Cl)cc2F)c1=O [I.7-7]
Post-emergence effect at 5 g/ha against DIGSA in % [1]: 100%
Post-emergence effect at 20 g/ha against DIGSA in % [1]: 100%
Post-emergence effect at 5 g/ha against POLCO in % [2]: 100%
Post-emergence effect at 20 g/ha against POLCO in % [2]: 100%
Post-emergence effect at 1.25 g/ha against PHBPU in % [3]: 100%
Post-emergence effect at 5 g/ha against PHBPU in % [3]: 100%
Post-emergence effect at 20 g/ha against PHBPU in % [3]: 100%
Post-emergence effect at 20 g/ha against LOLRI in % (Lolium rigidum (LOLRI)): 100%
Post-emergence effect at 1.25 g/ha against KCHSC in % (Bassia scoparia (KCHSC)): 100%
Post-emergence effect at 5 g/ha against KCHSC in % (Bassia scoparia (KCHSC)): 100%
Post-emergence effect at 20 g/ha against KCHSC in % (Bassia scoparia (KCHSC)): 100%
Post-emergence effect at 1.25 g/ha against AMARE in % [4]: 100%
Post-emergence effect at 5 g/ha against AMARE in % [4]: 100%
Post-emergence effect at 20 g/ha against AMARE in % [4]: 100%
Post-emergence effect at 1.25 g/ha against VERPE in % (Veronica persica (VERPE)): 100%
Post-emergence effect at 5 g/ha against VERPE in % (Veronica persica (VERPE)): 100%
Post-emergence effect at 20 g/ha against VERPE in % (Veronica persica (VERPE)): 100%
Post-emergence effect at 1.25 g/ha against VIOTR in % (Viola tricolor (VIOTR)): 100%
Post-emergence effect at 5 g/ha against VIOTR in % (Viola tricolor (VIOTR)): 100%
Post-emergence effect at 20 g/ha against VIOTR in % (Viola tricolor (VIOTR)): 100%
Post-emergence effect at 1.25 g/ha against SETVI in % (Setaria viridis (SETVI)): 100%
Post-emergence effect at 5 g/ha against SETVI in % (Setaria viridis (SETVI)): 100%
Post-emergence effect at 20 g/ha against SETVI in % (Setaria viridis (SETVI)): 100%
Post-emergence effect at 5 g/ha against MATIN in % [5]: 100%
Post-emergence effect at 20 g/ha against MATIN in % [5]: 100%
Post-emergence effect at 5 g/ha against ECHCG in % [6]: 100%
Post-emergence effect at 20 g/ha against ECHCG in % [6]: 100%
Post-emergence effect at 5 g/ha against ABUTH in % [7]: 100%
Post-emergence effect at 20 g/ha against ABUTH in % [7]: 100%
Post-emergence effect at 5 g/ha against ALOMY in % [8]: 80%
Post-emergence effect at 20 g/ha against ALOMY in % [8]: 100%

Post-emergence effect at 1.25 g/ha against TRZAS in % [9]: 20%
Structure (SMILES): Cn1c(C(F)(F)F)cc(=O)n(-c2cc(Oc3ccccc3OCC(=O)OCC3CC3(F)F)c(Cl)cc2F)c1=O (centres unmarked) [I.7-8]
Post-emergence effect at 1.25 g/ha against DIGSA in % [1]: 100%
Post-emergence effect at 5 g/ha against DIGSA in % [1]: 100%
Post-emergence effect at 20 g/ha against DIGSA in % [1]: 100%
Post-emergence effect at 5 g/ha against POLCO in % [2]: 100%
Post-emergence effect at 20 g/ha against POLCO in % [2]: 100%
Post-emergence effect at 1.25 g/ha against PHBPU in % [3]: 80%
Post-emergence effect at 5 g/ha against PHBPU in % [3]: 100%
Post-emergence effect at 20 g/ha against PHBPU in % [3]: 100%
Post-emergence effect at 20 g/ha against LOLRI in % (Lolium rigidum (LOLRI)): 80%
Post-emergence effect at 1.25 g/ha against KCHSC in % (Bassia scoparia (KCHSC)): 100%
Post-emergence effect at 5 g/ha against KCHSC in % (Bassia scoparia (KCHSC)): 100%
Post-emergence effect at 20 g/ha against KCHSC in % (Bassia scoparia (KCHSC)): 100%
Post-emergence effect at 1.25 g/ha against AMARE in % [4]: 100%
Post-emergence effect at 5 g/ha against AMARE in % [4]: 100%
Post-emergence effect at 20 g/ha against AMARE in % [4]: 100%
Post-emergence effect at 1.25 g/ha against VERPE in % (Veronica persica (VERPE)): 100%
Post-emergence effect at 5 g/ha against VERPE in % (Veronica persica (VERPE)): 100%
Post-emergence effect at 20 g/ha against VERPE in % (Veronica persica (VERPE)): 100%
Post-emergence effect at 1.25 g/ha against VIOTR in % (Viola tricolor (VIOTR)): 100%
Post-emergence effect at 5 g/ha against VIOTR in % (Viola tricolor (VIOTR)): 100%
Post-emergence effect at 20 g/ha against VIOTR in % (Viola tricolor (VIOTR)): 100%
Post-emergence effect at 1.25 g/ha against SETVI in % (Setaria viridis (SETVI)): 100%
Post-emergence effect at 5 g/ha against SETVI in % (Setaria viridis (SETVI)): 100%
Post-emergence effect at 20 g/ha against SETVI in % (Setaria viridis (SETVI)): 100%
Post-emergence effect at 5 g/ha against MATIN in % [5]: 100%
Post-emergence effect at 20 g/ha against MATIN in % [5]: 100%
Post-emergence effect at 5 g/ha against ECHCG in % [6]: 100%
Post-emergence effect at 20 g/ha against ECHCG in % [6]: 100%
Post-emergence effect at 1.25 g/ha against ABUTH in % [7]: 100%
Post-emergence effect at 5 g/ha against ABUTH in % [7]: 100%
Post-emergence effect at 20 g/ha against ABUTH in % [7]: 100%
Post-emergence effect at 5 g/ha against ALOMY in % [8]: 80%
Post-emergence effect at 20 g/ha against ALOMY in % [8]: 100%

Post-emergence effect at 1.25 g/ha against TRZAS in % [9]: 20%
Structure (SMILES): Cn1c(C(F)(F)F)cc(=O)n(-c2cc(Oc3ccccc3OCC(=O)OCC3CC3(C)C)c(Cl)cc2F)c1=O (centres unmarked) [I.7-9]
Post-emergence effect at 1.25 g/ha against DIGSA in % [1]: 100%
Post-emergence effect at 5 g/ha against DIGSA in % [1]: 100%
Post-emergence effect at 20 g/ha against DIGSA in % [1]: 100%
Post-emergence effect at 20 g/ha against POLCO in % [2]: 100%
Post-emergence effect at 1.25 g/ha against PHBPU in % [3]: 100%
Post-emergence effect at 5 g/ha against PHBPU in % [3]: 100%
Post-emergence effect at 20 g/ha against PHBPU in % [3]: 100%
Post-emergence effect at 20 g/ha against LOLRI in % (Lolium rigidum (LOLRI)): 90%
Post-emergence effect at 1.25 g/ha against KCHSC in % (Bassia scoparia (KCHSC)): 90%
Post-emergence effect at 5 g/ha against KCHSC in % (Bassia scoparia (KCHSC)): 100%
Post-emergence effect at 20 g/ha against KCHSC in % (Bassia scoparia (KCHSC)): 100%
Post-emergence effect at 1.25 g/ha against AMARE in % [4]: 100%
Post-emergence effect at 5 g/ha against AMARE in % [4]: 100%
Post-emergence effect at 20 g/ha against AMARE in % [4]: 100%
Post-emergence effect at 1.25 g/ha against VERPE in % (Veronica persica (VERPE)): 90%
Post-emergence effect at 5 g/ha against VERPE in % (Veronica persica (VERPE)): 100%
Post-emergence effect at 20 g/ha against VERPE in % (Veronica persica (VERPE)): 100%
Post-emergence effect at 1.25 g/ha against VIOTR in % (Viola tricolor (VIOTR)): 100%
Post-emergence effect at 5 g/ha against VIOTR in % (Viola tricolor (VIOTR)): 100%
Post-emergence effect at 20 g/ha against VIOTR in % (Viola tricolor (VIOTR)): 100%
Post-emergence effect at 1.25 g/ha against SETVI in % (Setaria viridis (SETVI)): 100%
Post-emergence effect at 5 g/ha against SETVI in % (Setaria viridis (SETVI)): 100%
Post-emergence effect at 20 g/ha against SETVI in % (Setaria viridis (SETVI)): 100%
Post-emergence effect at 20 g/ha against MATIN in % [5]: 100%
Post-emergence effect at 1.25 g/ha against ECHCG in % ([6]; 1.25 g/ha): 80%
Post-emergence effect at 5 g/ha against ECHCG in % [6]: 100%
Post-emergence effect at 20 g/ha against ECHCG in % [6]: 100%
Post-emergence effect at 1.25 g/ha against ABUTH in % [7]: 100%
Post-emergence effect at 5 g/ha against ABUTH in % [7]: 100%
Post-emergence effect at 20 g/ha against ABUTH in % [7]: 100%
Post-emergence effect at 20 g/ha against ALOMY in % [8]: 100%
